Laboratory results from patent US20120214862A1, “MODULATION OF FACTOR 7 EXPRESSION” (ISIS Pharmaceuticals, Inc., priority 2009, published 2012).
In the oligonucleotide strings, read from the 5' end, every base follows the letter of its sugar. An asterisk marks phosphorothioate; unmarked linkages are phosphodiester. Other units and linkages are bracketed, terminal groups are in braces. A string of capitals states the bases alone. e = 2'-O-(2-methoxyethyl) (MOE); [5mC] = 5-methylcytosine; d = 2'-deoxy (DNA)

System: human Factor 7 mRNA
Experiment: Antisense inhibition of human Factor 7 mRNA in HepB3 cells, lipofectin, 50 nM, real-time RT-PCR
Assay type: cell-based
Settings: HepB3 cells; for % Inhibition (human Factor 7 mRNA): Example 1, lipofectin, 50 nM, ~24 h, relative to untreated control cells
Description: Antisense oligonucleotides targeted to a Factor 7 nucleic acid were tested for their effects on Factor 7 mRNA in vitro. Cultured HepB3 cells at a density of 4,000 cells per well were transfected using lipofectin reagent with 50 nM antisense oligonucleotide. After a treatment period of approximately 24 hours, RNA was isolated from the cells and Factor 7 mRNA levels were measured by real-time RT-PCR, as described herein. Factor 7 mRNA levels were adjusted according to total RNA content as measured by RIBOGREEN®. Results are presented as percent inhibition of Factor 7, relative to untreated control cells.
(§1) Antisense oligonucleotides targeted to a Factor 7 nucleic acid were designed and tested for their effects on Factor 7 mRNA in vitro. Certain antisense oligonucleotides from Table 3 were also retested for their effects on Factor 7 mRNA in vitro. Cultured HepB3 cells at a density of 4,000 cells per well were transfected using lipofectin reagent with 50 nM antisense oligonucleotide. After a treatment period of approximately 24 hours, RNA was isolated from the cells and Factor 7 mRNA levels were measured by real-time RT-PCR, as described herein. Human Factor 7 primer probe set RTS 2927 was used to measure mRNA levels. Factor 7 mRNA levels were adjusted according to total RNA content as measured by RIBOGREEN®. Results are presented as percent inhibition of Factor 7, relative to untreated control.
as §1, with “tested” for “tested for their effects on Factor 7 mRNA in vitro. Certain antisense oligonucleotides from Table 3 were also retested”
These gapmers were designed by creating gapmers shifted slightly upstream and downstream (i.e. “microwalk”) of the original gapmers from Table 7. Gapmers were also created with various motifs, e.g. 5-10-5 MOE, 3-14-3 MOE, and 2-13-5 MOE. These gapmers were tested in vitro. Cultured HepB3 cells at a density of 4,000 cells per well were transfected using lipofectin reagent with 50 nM antisense oligonucleotide. After a treatment period of approximately 24 hours, RNA was isolated from the cells and Factor 7 mRNA levels were measured by real-time RT-PCR. Factor 7 mRNA levels were adjusted according to total RNA content, as measured by RIBOGREEN®. Results are presented as percent inhibition of Factor 7, relative to untreated control cells.

| Substance | % Inhibition (human Factor 7 mRNA) [%] | % Inhibition of human Factor 7 mRNA levels (gapmers targeted to nucleobases 14707 to 14732 of SEQ ID NO: 1 (Table 11)) [%] |
| --- | --- | --- |
| 407632 (antisense eT*e[5mC]*e[5mC]*eG*eT*dT*d[5mC]*dG*dG*dG*d[5mC]*dA*dG*dG*d[5mC]*eA*eG*eA*eG*eG) [compound 407632] | 46 | – |
| 407633 (antisense eG*e[5mC]*eA*eG*eG*d[5mC]*dA*dG*dT*d[5mC]*d[5mC]*dT*dG*dG*dG*eT*e[5mC]*eA*eT*e[5mC]) [compound 407633] | 71 | – |
| 407634 (antisense eG*eT*eG*eA*e[5mC]*dT*dG*d[5mC]*dT*dG*d[5mC]*dA*dG*dG*d[5mC]*eA*eG*eT*e[5mC]*e[5mC]) [compound 407634] | 24 | – |
| 407635 (antisense eT*eG*eG*e[5mC]*e[5mC]*d[5mC]*d[5mC]*dA*dG*d[5mC]*dT*dG*dA*d[5mC]*dG*eA*eT*eG*e[5mC]*e[5mC]) [compound 407635] | 64 | – |
| 407636 (antisense eG*e[5mC]*eA*eG*e[5mC]*d[5mC]*d[5mC]*dT*dG*dG*d[5mC]*d[5mC]*d[5mC]*d[5mC]*dA*eG*e[5mC]*eT*eG*eA) [compound 407636] | 75 | – |
| 407637 (antisense eG*eT*eA*e[5mC]*eT*dG*dG*dG*dA*dG*dA*d[5mC]*d[5mC]*d[5mC]*dT*eG*eG*eT*eG*eT) [compound 407637] | 71 | – |
| 407638 (antisense eG*e[5mC]*e[5mC]*eA*e[5mC]*dT*d[5mC]*dG*dA*dT*dG*dT*dA*d[5mC]*dT*eG*eG*eG*eA*eG) [compound 407638] | 0 | – |
| 407639 (antisense eT*eT*eT*eG*e[5mC]*dA*dG*d[5mC]*d[5mC]*dA*d[5mC]*dT*d[5mC]*dG*dA*eT*eG*eT*eA*e[5mC]) [compound 407639] | 76 | – |
| 407640 (antisense eG*e[5mC]*eA*eT*eG*dA*dG*d[5mC]*dT*dT*dT*dT*dG*d[5mC]*dA*eG*e[5mC]*e[5mC]*eA*e[5mC]) [compound 407640] | 79 | – |
| 407642 (antisense e[5mC]*eA*eG*e[5mC]*eA*dG*d[5mC]*d[5mC]*dT*dG*dA*dG*dG*d[5mC]*d[5mC]*eA*eG*e[5mC]*eA*eG) [compound 407642] | 78 | 63 |
| 407644 (antisense eG*eA*eG*eG*eA*d[5mC]*dA*dG*d[5mC]*dA*d[5mC]*dA*d[5mC]*dA*dT*eG*eG*eA*eG*eT) [compound 407644] | 66 | – |
| 407645 (antisense eG*eA*eG*eA*eG*d[5mC]*dT*dA*dA*dA*d[5mC]*dA*dA*d[5mC]*d[5mC]*eG*e[5mC]*e[5mC]*eT*eT) [compound 407645] | 65 | – |
| 407646 (antisense eG*eG*eT*eG*eA*dT*dG*d[5mC]*dT*dT*d[5mC]*dT*dG*dA*dA*eT*eT*eG*eT*e[5mC]) [compound 407646] | 81 | – |
| 407647 (antisense eG*e[5mC]*eA*eG*e[5mC]*d[5mC]*dG*dT*dT*dT*dA*dT*dT*dG*dT*eG*eA*eA*eG*e[5mC]) [compound 407647] | 83 | – |
| 407649 (antisense eG*eA*eG*eG*eG*dT*dT*d[5mC]*dA*dT*dT*dT*d[5mC]*dA*dG*eT*eG*eA*eT*eG) [compound 407649] | 24 | – |
| 407650 (antisense e[5mC]*e[5mC]*eA*eT*eG*dT*dG*dA*dG*dG*dG*dT*dT*d[5mC]*dA*eT*eT*eT*e[5mC]*eA) [compound 407650] | 39 | – |
| 407651 (antisense eA*eG*e[5mC]*e[5mC]*eT*d[5mC]*dA*dA*dA*d[5mC]*dA*dT*d[5mC]*dT*dA*eT*e[5mC]*eA*eA*eA) [compound 407651] | 32 | – |
| 407652 (antisense eT*eG*eG*eG*eA*dG*d[5mC]*dT*dA*d[5mC]*dA*dG*d[5mC]*d[5mC]*dT*e[5mC]*eA*eA*eA*e[5mC]) [compound 407652] | 30 | – |
| 407653 (antisense eA*eA*eT*eA*eT*d[5mC]*dA*dT*dT*dG*dA*d[5mC]*dA*dA*dG*eG*eG*e[5mC]*eT*eG) [compound 407653] | 21 | – |

| Substance | % Inhibition (human Factor 7 mRNA) [%] | % Inhibition of human Factor 7 mRNA levels (gapmers targeted to nucleobases 14707 to 14732 of SEQ ID NO: 1 (Table 11)) [%] |
| --- | --- | --- |
| 407654 (antisense e[5mC]*e[5mC]*eA*e[5mC]*eT*dG*d[5mC]*dA*dG*d[5mC]*d[5mC]*dA*dG*dG*dG*e[5mC]*e[5mC]*eT*eG*eG) [compound 407654] | 34 | – |
| 407655 (antisense eA*eG*eA*eG*eT*dG*d[5mC]*dA*dG*d[5mC]*dT*dT*dG*d[5mC]*d[5mC]*eA*eG*eG*eT*e[5mC]) [compound 407655] | 28 | – |
| 407656 (antisense e[5mC]*eA*eG*e[5mC]*eA*dA*dG*dA*dG*dT*dG*d[5mC]*dA*dG*d[5mC]*eT*eT*eG*e[5mC]*e[5mC]) [compound 407656] | 43 | – |
| 407657 (antisense eG*eG*eG*eA*e[5mC]*dT*d[5mC]*dA*dG*d[5mC]*dA*dA*dG*dA*dG*eT*eG*e[5mC]*eA*eG) [compound 407657] | 26 | – |
| 407658 (antisense eG*e[5mC]*eT*eT*eG*d[5mC]*d[5mC]*dG*dG*dA*dG*dT*d[5mC]*dT*dG*eA*eG*eT*eG*eG) [compound 407658] | 16 | – |
| 407659 (antisense eG*eA*eT*eG*eG*d[5mC]*dA*dT*d[5mC]*dG*dA*dG*dT*d[5mC]*d[5mC]*eA*e[5mC]*eT*e[5mC]*eT) [compound 407659] | 55 | – |
| 407660 (antisense eG*e[5mC]*eT*e[5mC]*eT*dG*dA*dA*dG*dT*dA*dG*dA*dT*dG*eA*eT*eG*e[5mC]*e[5mC]) [compound 407660] | 16 | – |
| 407661 (antisense eT*eT*eT*eA*e[5mC]*dA*dA*dG*dA*dG*d[5mC]*dA*dG*dG*dG*eT*eG*e[5mC]*e[5mC]*eT) [compound 407661] | 47 | – |
| 407663 (antisense eT*eT*eG*e[5mC]*eA*dG*dG*d[5mC]*dA*dG*dG*dA*d[5mC]*dT*dG*eG*eT*eG*eG*eT) [compound 407663] | 44 | – |
| 407664 (antisense e[5mC]*eA*eG*eG*eG*d[5mC]*dG*dA*dG*dG*d[5mC]*dA*dA*d[5mC]*d[5mC]*e[5mC]*e[5mC]*eG*eT*eG) [compound 407664] | 70 | – |
| 407665 (antisense eG*eT*eT*eA*e[5mC]*dG*dA*dA*dG*dA*d[5mC]*dT*dG*dG*dG*eA*eA*eA*eT*eG) [compound 407665] | 29 | – |
| 407666 (antisense eT*e[5mC]*e[5mC]*e[5mC]*e[5mC]*dA*dG*dG*dA*d[5mC]*dA*dT*d[5mC]*dT*dG*eG*eA*eA*e[5mC]*eT) [compound 407666] | 52 | – |
| 407667 (antisense eG*eT*eG*eG*e[5mC]*d[5mC]*dA*dT*dG*d[5mC]*d[5mC]*d[5mC]*dT*dG*dG*eG*eT*e[5mC]*eA*eG) [compound 407667] | 71 | – |
| 407668 (antisense eG*eA*eA*eG*e[5mC]*d[5mC]*dT*dT*dA*d[5mC]*d[5mC]*dT*dG*d[5mC]*d[5mC]*eA*eT*eG*eG*eA) [compound 407668] | 54 | – |
| 407669 (antisense eT*eA*eG*eA*e[5mC]*d[5mC]*d[5mC]*dT*d[5mC]*dA*dG*dT*dG*dA*dG*eT*eG*eT*e[5mC]*eG) [compound 407669] | 57 | – |
| 407886 (antisense eG*e[5mC]*eA*eG*eA*dG*dG*dA*dG*d[5mC]*d[5mC]*dT*dG*dA*dG*eG*eG*e[5mC]*e[5mC]*eT) [compound 407886] | 72 | – |
| 407887 (antisense e[5mC]*e[5mC]*eA*eG*eG*d[5mC]*dA*dG*d[5mC]*d[5mC]*d[5mC]*dT*dG*dA*dA*eG*e[5mC]*e[5mC]*e[5mC]*eA) [compound 407887] | 78 | – |
| 407888 (antisense e[5mC]*eG*eA*eA*eG*dA*d[5mC]*dT*dG*d[5mC]*dA*dG*d[5mC]*d[5mC]*dA*eG*eG*e[5mC]*eA*eG) [compound 407888] | 34 | – |
| 407889 (antisense eT*e[5mC]*e[5mC]*eT*eG*dG*dG*dT*dT*dA*d[5mC]*dG*dA*dA*dG*eA*e[5mC]*eT*eG*e[5mC]) [compound 407889] | 54 | – |
